Assay results as given in PMC12377202, “Design, synthesis, and cytotoxic evaluation of quinazoline-based derivatives as VEGER-2 inhibitors: comparative study against EGFR kinase activity, induction of apoptosis, and molecular docking study” (RSC Advances, 2025).

What was measured:
Assay type in all cases: cell-based, human
HepG-2 = test: MTT anti-proliferative assay, HepG-2; conditions: Homo sapiens
K-562 = test: MTT anti-proliferative assay, K-562; conditions: Homo sapiens, K562
MCF-7 = test: MTT anti-proliferative assay, MCF-7; conditions: Homo sapiens
HEK-293 = test: MTT cytotoxicity against normal cells
[1] = MTT cytotoxicity against normal cells; conditions: human, HEK-293 cells (normal human embryonic kidney)

## CNC(=O)c1cc(Oc2ccc(NC(=O)Nc3ccc(Cl)c(C(F)(F)F)c3)cc2)ccn1 [Sorafenib, sorafenib, reference compound]
HepG-2; HepG2, 0.078 umol/ml
  viability at 78 µM: 51.7%
HepG-2; HepG2, 0.078 umol/ml, read-out: Toxicity %
  cytotoxicity at 0.078 µM: 48.3%
HepG-2; HepG2, 0.313 umol/ml
  viability at 0.313 µM: 16.5%
HepG-2; HepG2, 0.625 umol/ml
  viability at 0.625 µM: 11.1%
HepG-2; HepG2, 2.5 umol/ml, read-out: Toxicity %
  cytotoxicity at 2500 µM: 92.1%
HepG-2; HepG2, 10 umol/ml, read-out: Toxicity %
  cytotoxicity at 10000 µM: 93.1%
K-562; K-562, 0.078 umol/ml
  viability at 78 µM: 38.9%
K-562; K-562, 0.078 umol/ml, read-out: Toxicity %
  cytotoxicity at 78 µM: 61.1%
K-562; K-562, 0.313 umol/ml
  viability at 0.313 µM: 12.3%
K-562; K-562, 0.625 umol/ml
  viability at 0.625 µM: 9.18%
K-562; K-562, 2.5 umol/ml, read-out: Toxicity %
  cytotoxicity at 2500 µM: 92.1%
K-562; K-562, 10 umol/ml, read-out: Toxicity %
  cytotoxicity at 10000 µM: 92.9%
K-562; MTT, K-562, read-out: Cytotoxicity against cancer cells IC50 K-562
  IC50: 60.6 ± 2.6 nM
MCF-7; MCF7, MTT, MCF-7, read-out: Cytotoxicity against cancer cells IC50 MCF-7
  IC50: 128 ± 3.1 nM
MCF-7; MCF7, 0.078 umol/ml
  viability at 78 µM: 71.5%
MCF-7; MCF7, 0.078 umol/ml, read-out: Toxicity %
  cytotoxicity at 78 µM: 28.5%
MCF-7; MCF7, 0.313 umol/ml
  viability: 25.7%
MCF-7; MCF7, 0.313 umol/ml, read-out: Toxicity %
  cytotoxicity at 0.313 µM: 74.3%
MCF-7; MCF7, 0.625 umol/ml
  viability: 16.1%
MCF-7; MCF7, 2.5 umol/ml, read-out: Toxicity %
  cytotoxicity at 2500 µM: 89.1%
MCF-7; MCF7, 10 umol/ml, read-out: Toxicity %
  cytotoxicity at 10000 µM: 91.8%
HEK-293; HEK-293, 0.078 umol/ml
  Toxicity %: 30.65%
HEK-293; HEK-293, 0.156 umol/ml
  Toxicity %: 59.15%
HEK-293; HEK-293, 0.313 umol/ml
  Toxicity %: 69.11%
HEK-293; HEK-293, 0.625 umol/ml
  Toxicity %: 82.43%
HEK-293; HEK-293, 1.25 umol/ml
  Toxicity %: 86.92%
HEK-293; HEK-293, 2.5 umol/ml
  Toxicity %: 89.65%
HEK-293; HEK-293, 10 umol/ml
  Toxicity %: 93.7%
HEK-293; HEK-293, 50 umol/ml
  Toxicity %: 91.36%
HEK-293; Homo sapiens, HEK293, raw data, HEK-293
  IC50: 131000 nM
[1]; HEK-293, 0.078 umol/ml
  viability at 3 days, 0.078 umol/ml: 69.4%
[1]; HEK-293, 0.156 umol/ml
  viability at 3 days, 0.156 umol/ml: 40.8%
[1]; HEK-293, 0.313 umol/ml
  viability at 3 days, 0.313 umol/ml: 30.9%
[1]; HEK-293, 0.625 umol/ml
  viability at 3 days, 0.625 umol/ml: 17.6%
[1]; HEK-293, 1.25 umol/ml
  viability at 3 days, 1.25 umol/ml: 13.1%
[1]; HEK-293, 2.5 umol/ml
  viability at 3 days, 2.5 umol/ml: 10.3%
[1]; HEK-293, 10 umol/ml
  viability at 3 days, 10 umol/ml: 6.3%
[1]; HEK-293, 50 umol/ml
  viability at 3 days, 50 umol/ml: 8.64%
